# Source: PMC7351765, “Gastrin releasing peptide receptor targeted nano-graphene oxide for near-infrared fluorescence imaging of oral squamous cell carcinoma” (Scientific Reports, 2020)
# What was measured:
# HSC-3 cells [1] = test: Internalization study, confocal laser scanning microscopy; format: cell-based, human; conditions: HSC-3, 50 nM probe, 4 h, DAPI nuclear stain
# Description: (§1) The time-dependent experiment was carried out on HSC-3 cells for both AF750-6Ahx-Sta-BBN and NGO-BBN-AF750. […] With increase of incubation time, cells uptake increased, and at the first 15 min, we observed a rapid binding of up to 80%. […] The cell uptake was 83 ± 15% and 89 ± 29% (AF750-6Ahx-Sta-BBN) and 85 ± 15% and 96 ± 20% (NGO-BBN-AF750) at 30 min and 60 min, respectively. We further conducted confocal laser scanning microscope experiments to evaluate the internalization of AF750-6Ahx-Sta-BBN and NGO-BBN-AF750 into HSC-3 cells and HOK cells. Blue fluorescence (Excitation, 460 nm) was used to represent the nuclei of HSC-3 cells. Red (Excitation, 750 nm) channel represents the fluorescence signal of AF750. […] While AF750-6Ahx-Sta-BBN is a GRPR antagonist to the HSC-3, NGO-BBN-AF750 may be internalized into HSC-3 cells via the combined interaction of BBN binding and the endocytosis of the nanoparticle. Evaluating nanotoxicity of NGO-BBN-AF750 was a part of our experimental design.
# HSC-3 cells were seeded into 3.5 cm^2 culture dish at a density of 2 × 10^6, next cells were incubated with AF750-6Ahx-Sta-BBN or NGO-AF750-BBN at 37 °C for 15, 30, 60 and 120 min, respectively. Then, cells were washed three times with chilled PBS and harvested for flow cytometry measurements. Experiments were performed three times. […]
# GRPR on HSC-3 cells = molecular target: T1, GRPR on HSC-3 cells (Homo sapiens, UniProt P30550); test: Specificity binding (blocking) assay, NIR fluorescence microscopy; format: cell-based; conditions: 37 °C
# T1 construct: endogenous in cells; host or cells: HSC-3 (human tongue squamous cell carcinoma)
# T1 sequence (P30550 whole entry): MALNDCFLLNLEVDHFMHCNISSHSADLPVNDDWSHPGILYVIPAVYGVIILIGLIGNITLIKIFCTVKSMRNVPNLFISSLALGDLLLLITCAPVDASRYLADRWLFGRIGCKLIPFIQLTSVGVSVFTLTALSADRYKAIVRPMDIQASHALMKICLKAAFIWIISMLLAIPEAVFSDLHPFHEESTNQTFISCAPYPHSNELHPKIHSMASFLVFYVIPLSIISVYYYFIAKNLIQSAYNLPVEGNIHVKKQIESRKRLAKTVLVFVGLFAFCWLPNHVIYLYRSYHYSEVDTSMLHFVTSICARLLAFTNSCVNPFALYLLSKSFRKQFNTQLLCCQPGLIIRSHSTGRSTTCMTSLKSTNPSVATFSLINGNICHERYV
# Description: The binding specificities of AF750-6Ahx-Sta-BBN were determined with HSC-3 cells of human oral tongue squamous cell carcinoma using previously described methods. […] To determine the binding affinity of AF750-6Ahx-Sta-BBN in HSC-3, cells were first incubated with BBN (1–14), then added increasing concentrations of AF750-6Ahx-Sta-BBN (0.005–50 nM). Cells were washed after 50 min incubation and examined by flow cytometry. The binding affinity to GRPR is shown in Fig. 7, and plotted as the fluorescence intensity as function of the AF750-6Ahx-Sta-BBN concentration (Fig. 7B).
# Figure 6 The specificity binding assay of AF750-6Ahx-Sta-BBN to GRPR on HSC-3 cells at 37 °C. The scale bar is 30 μm.
# [2] = tested on: GRPR overexpressed in a prostate cancer PC-3 cell line; conditions: cited from earlier work
# Description: AF750-6Ahx-Sta-BBN is a GRPR antagonist peptide analog.
# HSC-3 cells [3] = test: Time-dependent cell uptake, flow cytometry; format: cell-based, human; conditions: HSC-3, 2 × 10^6 cells, 37 °C, performed three times
# Description: as §1
# HSC-3 cells were seeded into 3.5 cm^2 culture dish at a density of 2 × 10^6, next cells were incubated with AF750-6Ahx-Sta-BBN or NGO-AF750-BBN at 37 °C for 15, 30, 60 and 120 min, respectively. Then, cells were washed three times with chilled PBS and harvested for flow cytometry measurements. Experiments were performed three times. For internalization studies, HSC-3 cells were cultured in 24-well plates at 2 × 10^4 cells/well and grown for 24 h. Next, the original medium was replaced with fresh medium containing 50 nM AF750-6Ahx-Sta-BBN or NGO-BBN-AF750. The cells were then incubated for 4 h. After washing the cells three times with PBS, 2.5% paraformaldehyde was used to fix the cells. Then DAPI (Excitation, […]) was used to stain the nuclei of the cells. Finally, the cells were visualized under OLYMPUS FV1200 confocal laser scanning microscope (Olympus, Osaka, Japan). In addition, HOK cells were used as a GRPR-negative control group and cultured with NGO-BBN-AF750, the above experiment was performed and compared to the HSC-3 cells.
# GRPR = molecular target: T2, GRPR (Homo sapiens, UniProt P30550); test: Immunofluorescence assay of paraffin tissue sections with the fluorescent probe; conditions: 4-µm paraffin sections, probe 10 min in the dark, ImageJ quantitation
# T2 construct: The paraffin-embedded samples, obtained from the Department of Pathology, Stomatology Hospital of Shanxi Medical University, were cut into 4-µm slices; from tissue; host or cells: paraffin-embedded OSCC tissue and normal oral mucosa sections from patients
# T2 sequence (P30550 whole entry): as above
# Description: We analyzed the expression levels of GRPR in primary OSCC sections and the normal tissue sections using AF750-6Ahx-Sta-BBN immunofluorescence assay.
# The paraffin-embedded samples, obtained from the Department of Pathology, Stomatology Hospital of Shanxi Medical University, were cut into 4-µm slices. Then tissue blocks were treated with xylene and dehydrated using a graded ethanol series. Following that, the sections were heated for antigen retrieval and incubated in 3% H2O2 to block endogenous peroxidase. The BSA was added and incubated at 37 °C for 30 min. After that, BSA was removed and AF750-6Ahx-Sta-BBN was added and incubated for 10 min in the dark. The slides were observed and imaged using an inverted Olympus fluorescence microscope (Olympus Corp., Osaka, Japan). Quantitative analysis of GRPR expression was performed using ImageJ (https://imagej.nih.gov/ij/). Each patient received written informed consent before the study.
substance,measurement,setting,value
"-DPhe-Gln-Trp-Ala-Val-Gly-His-Sta-Leu-NH2 [AF750-6Ahx-Sta-BBN, GRPR-specific Alexa Fluor 750 labeled BBN antagonist peptide; Sta-BBN conjugated to AF750 via 6-aminohexanoic acid linker]",cellular localisation / internalization,HSC-3 cells [1],observed on the membrane of HSC-3
same,"NIR fluorescence of cells, blocking group",GRPR on HSC-3 cells; HSC-3 cells incubated with excessive BBN (1–14) for 10 min before the probe,no fluorescence signal
same,"NIR fluorescence of cells, uptake group","GRPR on HSC-3 cells; HSC-3 cells incubated with probe, no blocking",strong NIR fluorescence signals
same,binding affinity and specificity to GRPR,[2],high binding affinity and specificity
same,binding in the first 15 min,HSC-3 cells [3]; 15 min,up to 80%
same,cell uptake at 30 min,HSC-3 cells [3]; 30 min,83 ± 15%
same,cell uptake at 60 min,HSC-3 cells [3]; 60 min,89 ± 29%
same,"fluorescence intensity increase, OSCC tissue versus normal oral mucous tissue",GRPR,2.5 fold
